Test results published in patent US20040241754A1, “Modulating neuronal plasticity” (The Salk Institute for Biological Studies, priority 2003, published 2004).
“Also recorded” adds a separate entry of the source. Ends that are not written are not given here.

Key:
GRIP PDZ4-6 = target: T1, GRIP PDZ4-6 (Rattus norvegicus, UniProt P97879); test: Competitive binding of 35S-EphB2 to His-GRIP-PDZ4-6; settings: 35S-EphB2 50 nM; fitted to the Hill equation; read-out: Ki, displacement of 35S-EphB2 binding to His-GRIP-PDZ 4-6
T1 construct: corresponding to GRIP1 (amino acid 448-792); made in house; host or cells: E. coli BL21
T1 sequence (P97879 448-792): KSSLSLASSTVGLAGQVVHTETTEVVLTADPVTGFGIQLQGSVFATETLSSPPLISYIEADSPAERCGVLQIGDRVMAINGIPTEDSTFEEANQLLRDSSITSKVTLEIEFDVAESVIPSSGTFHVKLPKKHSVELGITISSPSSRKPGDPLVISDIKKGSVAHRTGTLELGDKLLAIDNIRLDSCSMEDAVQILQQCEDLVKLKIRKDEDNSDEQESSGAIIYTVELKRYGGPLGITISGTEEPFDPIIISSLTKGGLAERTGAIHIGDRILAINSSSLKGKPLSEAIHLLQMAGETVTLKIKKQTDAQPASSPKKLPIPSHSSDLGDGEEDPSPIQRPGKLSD
Description: A competitive binding assay was prepared to determine if the LTP inhibitory effects of the GluR2ct peptide were mediated through disruption of binding between Eph receptors and PDZ domain 6 of GRIP (Torres et al., Neuron 21, 1453-63. (1998)) as opposed to disruption of binding between the GluR2 subunit and the GluR2-binding PDZ 4 and 5 domains of GRIP (Dong et al., Nature 386, 279-84. (1997)). For this purpose, a binding assay was established between GRIP PDZ domain fragments (His-GRIP-PDZ4-6) and an EphB2 carboxy terminal fusion protein labeled with ^35S-methionine (^35S-EphB2).
(§1) Briefly, the carboxy terminal region of EphB2 corresponding to mouse EphB2 receptor (amino acid 930-993) was generated by PCR from mouse brain library and subcloned into pGEX2TK (Pharmacia). The GRIP(PDZ4-6) construct, corresponding to GRIP1 (amino acid 448-792) was obtained by PCR from an adult rat hippocampal library and subcloned into pRSET vector. E coli (strain BL21) were transformed with His-GRIP(PDZ4-6) and GST-EphB2 and protein production induced with IPTG. GST-EphB2 protein was purified on glutathionine beads and ^35S-EphB2 cleaved from GST with thrombin (1 U/μg). GRIP(PDZ4-6) protein was purified on Ni-NTA agarose, and eluted with imadazole. ^35S-EphB2 (50 nM) was incubated with (15 μg) of His-GRIP(PDZ4-6) protein in PBS buffer with protease inhibitors for 2 hrs at 22° C. in the absence or presence of peptides. ^35S-EphB2 binding to His-GRIP(PDZ4-6) was determined after a 45 min incubation with Ni-NTA agarose and vacuum filtration onto Whatman GFB filter circles (pretreated with 3% BSA). Filters were washed with ice-cold PBS buffer, allowed to equilibrate overnight in ECOLUME scintillation cocktail (ICN pharmaceuticals, Irvine Calif.), and specific counts measured in a scintillation counter. Non-specific binding was defined as the residual binding measured in the absence of His-GRIP(PDZ4-6).

[1] = tested on: mossy fiber synapses of hippocampal CA3 pyramidal neurons; test: Mossy fiber LTP, whole-cell patch clamp in hippocampal slices; type: cell-based, mice
Description: The role of the GluR2 subunit in LTP at mossy fiber terminals was evaluated in whole cell patch clamp experiments using hippocampal CA3 pyramidal neurons. Briefly, transverse hippocampal slices (350 μm) were made from P12-18 mice (strain 129SvEv) as previously described (Contractor et al., Neuron 29, 209-16. (2001)). Slices were transferred to a recording chamber, and whole-cell patch clamp recordings made from visually identified pyramidal cells in the CA3 region of the hippocampus. The recording electrode (i.e., patch electrode) is filled with an “internal” solution described below. A seal between the glass of the electrode and the membrane of the cell is made. The seal is then “broken through” by pushing the electrode through the membrane to gain low resistance access to the cell interior and enable voltage clamping of the cell membrane. This also allows dialysis of the cell with test reagents such as peptides and antibodies. A stimulating electrode is attached to a current source and allows current to stimulate action potentials while a reference electrode is placed in the recording bath. The composition of the internal solution was: 95 mM CsF, 25 mM CsCl, 10 mM Cs-HEPES, 10 mM Cs-EGTA, 2 mM NaCl, 2 mM Mg-ATP, 10 mM QX-314, 5 mM TEA-Cl, 5 mM 4-AP, pH adjusted to 7.3 with CsOH.
Peptides were added directly to the internal solution on the day of the experiment from frozen stocks in protease inhibitors made up in phosphate buffered saline (PBS). To avoid leakage of peptides or antibodies into the extracellular space, pipette tips were filled with normal internal solution and then the pipette was backfilled with peptide/antibody containing internal fluid. The final concentration of peptides was 50 μM in all experiments. The final concentration of protease inhibitors were: bestatin 2 μg/ml, leupeptin 25 ng/ml, pepstatin 35 ng/ml, aprotinin 100 ng/ml.
In control experiments where peptides were not included, internal solutions were made up in exactly the same way with protease inhibitors in PBS but lacking any added peptide. Antibodies were made up in PBS stock and added directly to the internal solution at a final concentration of 20 μg/ml. The pH and osmolarity of all internal solutions were checked before use. Series resistances (Rs) were generally <10M and were continuously monitored throughout the duration of the experiment. […] Experiments using mutant mice were performed with heterozygous breedings blind to the genotype of the animal.
Mossy fiber EPSCs were evoked with a monopolar glass electrode positioned in the stratum lucidum. EPSCs were evaluated using a 40 ms interval between recordings. All recordings were made in the continuous presence of bicuculline (10 μM), picrotoxin (50 μM) and the NMDA receptor antagonist D-AP5 [D(-)-2-Amino-5-phosphonopentanoic acid; 50 μM]. The group II mGluR agonist, LCCG-1 (10 μM), which selectively depresses mossy fiber transmission, was applied at the end of each experiment. LTP was induced by tetanic stimulation comprising three 1 s stimulations (100 Hz) with a 10 s interval. Data are presented as mean±SEM. Parameters were compared using the Student's unpaired t-test where not specified, and the K-S test, p<0.05 was considered significant.
Cumulative probability is determined by ranking the EPSC data set from the highest to the lowest value from 20 to 30 minutes post tetanization. Each point is graphed with its corresponding percentile. […] The lowest LTP value was about 40% signified by the lowest point on the 1 st graph (open circles) and the largest LTP was about 160%.

GRIP PDZ 6 domain = target: T2, GRIP PDZ 6 domain (Rattus norvegicus, UniProt P97879); test: Competitive binding of 35S-EphB2 to His-GRIP-PDZ6
T2 construct: a GRIP fragment containing only the PDZ 6 domain; made in house; host or cells: E. coli BL21 (inferred from the PDZ4-6 construct)
T2 sequence (P97879 672-754 limits assumed): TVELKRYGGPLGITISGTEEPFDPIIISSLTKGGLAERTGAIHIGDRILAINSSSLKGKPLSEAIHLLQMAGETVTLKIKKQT
Text: as §1, with “His-GRIP(PDZ4-6). […]” for “His-GRIP(PDZ4-6).”

EphA4 = EphA4 (Homo sapiens, UniProt P54764); settings: read-out: Kd for binding to EphA4; cited from earlier work
EphA4, sequence (P54764 20-986, species assumed): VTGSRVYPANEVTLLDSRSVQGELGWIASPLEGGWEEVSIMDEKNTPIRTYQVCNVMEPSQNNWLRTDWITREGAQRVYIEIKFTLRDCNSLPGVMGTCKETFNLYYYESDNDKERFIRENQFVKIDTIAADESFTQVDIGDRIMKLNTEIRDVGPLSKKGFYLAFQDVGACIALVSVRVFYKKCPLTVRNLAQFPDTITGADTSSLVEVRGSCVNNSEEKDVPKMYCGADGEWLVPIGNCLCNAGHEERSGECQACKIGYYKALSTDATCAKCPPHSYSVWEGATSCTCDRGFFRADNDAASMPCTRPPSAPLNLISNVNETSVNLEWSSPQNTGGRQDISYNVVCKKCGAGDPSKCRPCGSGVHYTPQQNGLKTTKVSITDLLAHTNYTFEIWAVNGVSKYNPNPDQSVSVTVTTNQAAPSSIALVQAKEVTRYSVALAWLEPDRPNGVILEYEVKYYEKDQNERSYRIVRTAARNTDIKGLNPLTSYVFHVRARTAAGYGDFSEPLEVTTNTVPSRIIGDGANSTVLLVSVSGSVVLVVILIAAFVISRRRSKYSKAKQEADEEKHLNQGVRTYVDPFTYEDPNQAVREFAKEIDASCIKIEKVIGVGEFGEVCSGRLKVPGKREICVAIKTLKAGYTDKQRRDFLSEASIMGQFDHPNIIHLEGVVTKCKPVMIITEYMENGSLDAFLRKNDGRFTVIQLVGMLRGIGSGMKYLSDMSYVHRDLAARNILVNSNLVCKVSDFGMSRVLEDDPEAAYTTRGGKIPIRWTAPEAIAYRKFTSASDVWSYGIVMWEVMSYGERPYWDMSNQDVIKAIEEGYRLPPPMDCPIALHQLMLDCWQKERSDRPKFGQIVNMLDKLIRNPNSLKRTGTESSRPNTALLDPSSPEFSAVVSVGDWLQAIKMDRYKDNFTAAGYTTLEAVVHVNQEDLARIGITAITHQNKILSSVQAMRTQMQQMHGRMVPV

EphB1 = settings: read-out: Kd for binding to EphB1; cited from earlier work
His-GRIP-PDZ6 = target: T3, His-GRIP-PDZ6 (UniProt P97879 672-754); test: displacement of ^35S-EphB2 from His-GRIP-PDZ6
T3 construct: domain: PDZ 6; also called GRIP fragment containing only the PDZ 6 domain; PDZ domain 6 of GRIP; not shown: His tag
T3 sequence (looked up): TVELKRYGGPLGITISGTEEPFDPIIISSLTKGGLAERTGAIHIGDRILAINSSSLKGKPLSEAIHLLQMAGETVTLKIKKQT

His-GRIP(PDZ4-6) = target: T4, His-GRIP(PDZ4-6) (rat, UniProt P97879 448-792); test: displacement of ^35S-EphB2 (50 nM) from His-GRIP-PDZ4-6, Hill fit
T4 construct: range 448-792; not shown: His tag and vector residues from pRSET
T4 sequence (looked up): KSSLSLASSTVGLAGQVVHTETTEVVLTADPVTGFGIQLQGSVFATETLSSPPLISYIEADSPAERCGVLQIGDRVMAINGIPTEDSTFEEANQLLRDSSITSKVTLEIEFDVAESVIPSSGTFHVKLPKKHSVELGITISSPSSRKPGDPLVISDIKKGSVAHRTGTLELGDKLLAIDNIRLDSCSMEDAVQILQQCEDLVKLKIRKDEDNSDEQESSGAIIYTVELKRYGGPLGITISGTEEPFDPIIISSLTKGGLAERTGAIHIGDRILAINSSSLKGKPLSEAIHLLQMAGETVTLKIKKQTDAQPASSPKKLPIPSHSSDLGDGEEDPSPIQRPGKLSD

EphA3 = settings: read-out: Kd for binding to EphA3; cited from earlier work
EphA8 = target: T5, EphA8 (Mus musculus, UniProt O09127); settings: read-out: Kd for binding to EphA8; cited from earlier work
T5 sequence (O09127 27-1004): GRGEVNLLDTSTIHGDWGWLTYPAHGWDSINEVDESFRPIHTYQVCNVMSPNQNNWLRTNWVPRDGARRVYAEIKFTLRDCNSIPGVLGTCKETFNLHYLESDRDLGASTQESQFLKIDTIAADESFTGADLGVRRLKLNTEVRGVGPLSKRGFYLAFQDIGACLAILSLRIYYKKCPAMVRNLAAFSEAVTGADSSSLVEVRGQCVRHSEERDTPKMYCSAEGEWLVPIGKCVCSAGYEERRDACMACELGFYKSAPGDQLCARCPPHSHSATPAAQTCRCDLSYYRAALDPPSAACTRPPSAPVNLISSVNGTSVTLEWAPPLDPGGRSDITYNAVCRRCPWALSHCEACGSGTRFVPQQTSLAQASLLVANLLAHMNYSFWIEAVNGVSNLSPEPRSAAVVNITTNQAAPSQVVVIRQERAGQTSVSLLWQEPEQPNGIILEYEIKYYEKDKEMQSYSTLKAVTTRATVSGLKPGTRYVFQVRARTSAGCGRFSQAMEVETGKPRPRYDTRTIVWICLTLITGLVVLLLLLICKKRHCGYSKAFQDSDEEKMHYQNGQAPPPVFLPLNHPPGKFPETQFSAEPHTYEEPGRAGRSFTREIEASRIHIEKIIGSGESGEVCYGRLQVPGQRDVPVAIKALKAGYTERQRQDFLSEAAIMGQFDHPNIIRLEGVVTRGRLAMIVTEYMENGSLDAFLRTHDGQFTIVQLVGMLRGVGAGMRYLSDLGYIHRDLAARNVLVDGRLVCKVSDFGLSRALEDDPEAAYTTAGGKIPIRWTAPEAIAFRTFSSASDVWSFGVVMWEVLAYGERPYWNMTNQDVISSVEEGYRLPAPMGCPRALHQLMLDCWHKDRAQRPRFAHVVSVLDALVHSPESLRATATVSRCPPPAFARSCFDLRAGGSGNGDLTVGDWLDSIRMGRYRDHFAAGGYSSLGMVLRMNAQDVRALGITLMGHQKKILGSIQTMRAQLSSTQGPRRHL

[2] = peptide 50 μM in patch electrode, 40 ms interval

## NVYGIESVKI [GluR2ct, Asn-Val-Tyr-Gly-Ile-Glu-Ser-Val-Lys-Ile]
GRIP PDZ4-6
  Ki: 106 nM
[1]; peptide 50 μM in patch electrode (postsynaptic), 25 to 30 minutes after tetanic stimulation
  LTP (potentiation of the EPSC after tetanic stimulation): 140±11%
[1]; [2]
  LTP PPR (paired pulse ratio after LTP induction): 2.5±0.12
  control PPR (paired pulse ratio before LTP induction): 2.8±0.14
[1]; peptide 50 μM in patch electrode, immediately following tetanic stimulation
  PTP (post-tetanic potentiation): 510±67%
[1]; peptide in patch electrode
  effect on basal synaptic transmission / basal EPSC amplitudes: small effect on basal synaptic transmission in some neurons
  paired pulse ratio after LTP induction versus pretetanic: no significant difference after induction of LTP
[1]; peptide in patch electrode (postsynaptic)
  effect on tetanus induced LTP: little potentiation was observed; also recorded: significantly less potentiation; also recorded: inhibit mossy fiber hippocampal CA3 neuronal LTP
GRIP PDZ 6 domain
  displacement of EphB2 from / binding to GRIP PDZ domain 6: binds directly to PDZ domain 6 of GRIP; also recorded: can displace EphB2
GRIP PDZ 6 domain; read-out: Ki, displacement of 35S-EphB2 binding to His-GRIP-PDZ6
  Ki: 155 nM

B1: ephrin-A4: a 201 amino acid polypeptide; ephrin ligand (protein, UniProt P52798 26-170, looked up)
Ephrin-A4: LRHVVYWNSSNPRLLRGDAVVELGLNDYLDIVCPHYEGPGPPEGPETFALYMVDWPGYESCQAEGPRAYKRWVCSLPFGHVQFSEKIQRFTPFSLGFEFLPGETYYYISVPTPESSGQCLRLQVSVCCKERKSESAHPVGSPGES
EphA4
  Kd: 5 nM
EphB1
  Kd: 20 nM

B2: GluR2 carboxy terminal peptide (peptide)
peptide: NVYGIESVKI
notes: also called GluR2ct; R2ct
His-GRIP-PDZ6
  Ki: 155 nM
His-GRIP(PDZ4-6)
  Ki: 106 nM

B3: ephrin-B1: a 45 kDa, 346 amino acid glycosylated polypeptide; ephrin ligand (protein, UniProt P98172 1-346, looked up)
chain: MARPGQRWLGKWLVAMVVWALCRLATPLAKNLEPVSWSSLNPKFLSGKGLVIYPKIGDKLDIICPRAEAGRPYEYYKLYLVRPEQAAACSTVLDPNVLVTCNRPEQEIRFTIKFQEFSPNYMGLEFKKHHDYYITSTSNGSLEGLENREGGVCRTRTMKIIMKVGQDPNAVTPEQLTTSRPSKEADNTVKMATQAPGSRGSLGDSDGKHETVNQEEKSGPGASGGSSGDPDGFFNSKVALFAAVGAGCVIFLLIIIFLTVLLLKLRKRHRKHTQQRAAALSLSTLASPKGGSGTAGTEPSDIIIPLRTTENNYCPHYEKVSGDYGHPVYIVQEMPPQSPANIYYKV
modifications: full-length
notes: a 45 kDa, 346 amino acid glycosylated polypeptide; ephrin ligand
EphB1
  Kd: 0.925 nM
EphA3
  Kd: 350 nM

B4: ephrin-A2: a 213 amino acid protein; ephrin ligand (protein, UniProt O43921 1-213, looked up)
chain: MAPAQRPLLPLLLLLLPLPPPPFARAEDAARANSDRYAVYWNRSNPRFHAGAGDDGGGYTVEVSINDYLDIYCPHYGAPLPPAERMEHYVLYMVNGEGHASCDHRQRGFKRWECNRPAAPGGPLKFSEKFQLFTPFSLGFEFRPGHEYYYISATPPNAVDRPCLRLKVYVRPTNETLYEAPEPIFTSNNSCSSPGGCRLFLSTIPVLWTLLGS
modifications: full-length
notes: a 213 amino acid protein; ephrin ligand
EphA4
  Kd: 10 nM
EphA3
  Kd: 1 nM
EphA8
  Kd: 1.3 nM
